Source: patent publication US9995734B2, “Human T cell line assay for evaluating the immunologic identity of glatiramer acetate preparations” (Mylan Inc., priority 2013, dated 2018)

Tested on: Donor 3 GMA T-Cell Lines
Experiment: ATP proliferation assay (CellTiter Glo), Donor 3 GMA T-cell lines, incl. reactivity to non-canonical GA peptides
Format: cell-based, human
Conditions: for Mean, ATP proliferation assay: Day 40

glatiramer acetate [GMA]
Mean, ATP proliferation assay (T-cell line 165-D8G, 3 μg/mL): 12644 | Mean, ATP proliferation assay (T-cell line 165-D8G, 10 μg/mL): 31264 | Mean, ATP proliferation assay (T-cell line 165-E7G, 1 μg/mL): 2569 | Proliferation (luminescent ATP assay), Mean (T-cell line 165-E7G, 1.25 μg/mL antigen, autologous B-LCL, Day 55): 8875 RLU | Proliferation (luminescent ATP assay), Mean (T-cell line 165-E7G, 2.5 μg/mL antigen, autologous B-LCL, Day 55): 10248 RLU | Mean, ATP proliferation assay (T-cell line 165-E7G, 3 μg/mL): 6610 | Proliferation (luminescent ATP assay), Mean (T-cell line 165-E7G, 5 μg/mL antigen, autologous B-LCL, Day 55): 26934 RLU | Proliferation (luminescent ATP assay), Mean (T-cell line 165-E7G, 10 μg/mL antigen, autologous B-LCL, Day 55): 30721 RLU | Mean, ATP proliferation assay (T-cell line 165-E7G, 10 μg/mL): 14279 | Proliferation (luminescent ATP assay), Mean (T-cell line 165-E9G, 1 μg/mL antigen, Day 50 of culturing, No Antigen Value 1742): 1889 RLU | Mean, ATP proliferation assay (T-cell line 165-E9G, 1 μg/mL): 2961 | Proliferation (luminescent ATP assay), Mean (T-cell line 165-E9G, 1.25 μg/mL antigen, autologous B-LCL): 253 RLU | Proliferation (luminescent ATP assay), Mean (T-cell line 165-E9G, 2.5 μg/mL antigen, autologous B-LCL): 1647 RLU | Proliferation (luminescent ATP assay), Mean (T-cell line 165-E9G, 3 μg/mL antigen, Day 50 of culturing, No Antigen Value 1742): 5974 RLU | Mean, ATP proliferation assay (T-cell line 165-E9G, 3 μg/mL): 7837 | Proliferation (luminescent ATP assay), Mean (T-cell line 165-E9G, 5 μg/mL antigen, autologous B-LCL): 12964 RLU | Proliferation (luminescent ATP assay), Mean (T-cell line 165-E9G, 10 μg/mL antigen, autologous B-LCL): 13809 RLU | Mean, ATP proliferation assay (T-cell line 165-E9G, 10 μg/mL): 24935 | Proliferation (luminescent ATP assay), Mean (T-cell line 165-E9G, 30 μg/mL antigen, Day 50 of culturing, No Antigen Value 1742): 39472 RLU | Proliferation (luminescent ATP assay), Mean (T-cell line 165-E9G, 10 μpg/mL antigen, Day 50 of culturing, No Antigen Value 1742): 37352 RLU | Mean, ATP proliferation assay (T-cell line 165-F2G, 1 μg/mL): 1753 | Mean, ATP proliferation assay (T-cell line 165-F2G, 3 μg/mL): 1422 | Mean, ATP proliferation assay (T-cell line 165-F2G, 10 μg/mL): 1502 | Mean, ATP proliferation assay (T-cell line 165-F5G, 1 μg/mL): 5669 | Proliferation (luminescent ATP assay), Mean (T-cell line 165-F5G, 1.25 μg/mL antigen, autologous B-LCL): 1071 RLU | Proliferation (luminescent ATP assay), Mean (T-cell line 165-F5G, 2.5 μg/mL antigen, autologous B-LCL): 19012 RLU | Mean, ATP proliferation assay (T-cell line 165-F5G, 3 μg/mL): 14024 | Proliferation (luminescent ATP assay), Mean (T-cell line 165-F5G, 5 μg/mL antigen, autologous B-LCL): 45384 RLU | Proliferation (luminescent ATP assay), Mean (T-cell line 165-F5G, 10 μg/mL antigen, autologous B-LCL): 48029 RLU | Mean, ATP proliferation assay (T-cell line 165-F5G, 10 μg/mL): 23774 | Mean, ATP proliferation assay (T-cell line 165-F8G, 1 μg/mL): 4804 | Mean, ATP proliferation assay (T-cell line 165-F8G, 3 μg/mL): 6841 | Mean, ATP proliferation assay (T-cell line 165-F8G, 10 μg/mL): 11880 | Proliferation (luminescent ATP assay), Mean (T-cell line 165-F10G, 1 μg/mL antigen, Day 50 of culturing, No Antigen Value 3752): 4734 RLU | Mean, ATP proliferation assay (T-cell line 165-F10G, 1 μg/mL): 6015 | Proliferation (luminescent ATP assay), Mean (T-cell line 165-F10G, 1.25 μg/mL antigen, autologous B-LCL): 5731 RLU | Proliferation (luminescent ATP assay), Mean (T-cell line 165-F10G, 2.5 μg/mL antigen, autologous B-LCL): 38905 RLU | Proliferation (luminescent ATP assay), Mean (T-cell line 165-F10G, 3 μg/mL antigen, Day 50 of culturing, No Antigen Value 3752): 35371 RLU | Mean, ATP proliferation assay (T-cell line 165-F10G, 3 μg/mL): 17900 | Proliferation (luminescent ATP assay), Mean (T-cell line 165-F10G, 5 μg/mL antigen, autologous B-LCL): 66355 RLU | Proliferation (luminescent ATP assay), Mean (T-cell line 165-F10G, 10 μg/mL antigen, Day 50 of culturing, No Antigen Value 3752): 58913 RLU | Proliferation (luminescent ATP assay), Mean (T-cell line 165-F10G, 10 μg/mL antigen, autologous B-LCL): 57329 RLU | Mean, ATP proliferation assay (T-cell line 165-F10G, 10 μg/mL): 30198 | Proliferation (luminescent ATP assay), Mean (T-cell line 165-F10G, 30 μg/mL antigen, Day 50 of culturing, No Antigen Value 3752): 59173 RLU | Proliferation (luminescent ATP assay), Mean (T-cell line 165-H11G, 1 μg/mL antigen, Day 50 of culturing, No Antigen Value 1485): 9569 RLU | Mean, ATP proliferation assay (T-cell line 165-H11G, 1 μg/mL): 10205
